Several values for one entry are separate records, joined by “and”; a condition that tells them apart may be missing. Identical values can stand only once.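 Where inhibition never reached the appropriate level, the endpoint shown equals the highest concentration tested. Otherwise, values were interpolated linearly from a five-concentration, 48-hour dose response in 96-well plates. The concentration for 50% growth inhibition is given as GI50. TGI: total growth inhibition.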
What was measured:
Assay in all cases: growth of human tumour cells (NCI), 48 h
HOP-62 NSCLC = system: HOP-62 NSCLC
COLO 205 colon = system: COLO 205 colon
SF-539 CNS = system: SF-539 CNS
SK-MEL-2 melanoma = system: SK-MEL-2 melanoma
OVCAR-8 ovarian = system: OVCAR-8 ovarian
SF-268 CNS = system: SF-268 CNS
CCRF-CEM leukemia = system: CCRF-CEM leukemia
MALME-3M melanoma = system: MALME-3M melanoma
EKVX NSCLC = system: EKVX NSCLC
OVCAR-3 ovarian = system: OVCAR-3 ovarian

Compound | TGI (HOP-62 NSCLC) | TGI (COLO 205 colon) | TGI (SF-539 CNS) [µM] | TGI (SK-MEL-2 melanoma) | TGI (OVCAR-8 ovarian) | TGI (SF-268 CNS) [µM] | TGI (CCRF-CEM leukemia) | TGI (MALME-3M melanoma) | TGI (EKVX NSCLC) | TGI (OVCAR-3 ovarian) | GI50 (HOP-62 NSCLC) [µM] | GI50 (COLO 205 colon) [µM] | GI50 (SF-539 CNS) [µM] | GI50 (SK-MEL-2 melanoma) [µM] | GI50 (OVCAR-8 ovarian) [µM] | GI50 (SF-268 CNS) [µM] | GI50 (CCRF-CEM leukemia) [µM] | GI50 (MALME-3M melanoma) [µM] | GI50 (EKVX NSCLC) [µM] | GI50 (OVCAR-3 ovarian) [µM]
O=Cc1c(O)c(C(=O)Nc2ccc3[nH]c(=O)[nH]c3c2)cc2ccccc12 | > 100 µM | > 100 µM | > 100 | > 100 µM | > 100 µM | > 100 | > 100 µM | > 100 µM | > 100 µM | > 100 µM | – | – | – | – | – | – | – | – | – | –
Cc1cc(C)cc(NC(N)=S)c1 | > 100 µM | 59.1 µM | > 100 | > 100 µM | > 100 µM | > 100 | 48 µM | > 100 µM | > 100 µM | > 100 µM | – | – | – | – | – | – | – | – | – | –
Cc1cc(Cl)ccc1NC(=O)CC1SC(=Nc2ccccc2Cl)NC1=O (stereo not given) | > 100 µM | 47.1 µM | 55.3 | > 100 µM | > 100 µM | > 100 | > 100 µM | > 100 µM | > 100 µM | > 100 µM | – | – | – | – | – | – | – | – | – | –
Cc1cnc(C(=O)Nc2nc3ccc(S(=O)(=O)Nc4ccc(C5(C(F)(F)F)CC5)cc4)cc3[nH]2)cn1 | 6.71 µM | 9.35 µM | 3.3 | 20.1 µM | 23.4 µM | 11.9 | 22.8 µM | 8.65 µM | 9.34 µM | 1.34 µM | 0.622 | 0.414 | 0.314 | 0.784 | 0.722 | 0.733 | 0.379 | 0.345 | 0.701 | 0.25
N#CC1CC2(CCN1C(=O)c1ccccc1)OCCO2 (stereo not given) | > 100 µM | > 100 µM | > 100 | > 100 µM | > 100 µM | > 100 | > 100 µM | > 100 µM | > 100 µM | > 100 µM | – | – | – | – | – | – | – | – | – | –
NCCCNCCCCNC(=O)C(O)NC(=O)CCCCCCN=C(N)N (stereo not given) | 750 µM and > 5000 µM | 750 µM and > 5000 µM | > 5000 | 750 µM and 3420 µM | 750 µM and > 5000 µM | > 5000 | 750 µM and > 3570 µM | 628 µM and 3050 µM | 742 µM and > 5000 µM | 750 µM and > 5000 µM | 3470 | 1580 | > 4070 | 2040 | 2440 | 3070 | 1320 | 1920 | 4980 | 1750
CCCCCCCc1cc2c3c(nc4ccccc42)C(=O)c2cccnc2-c3n1 | 20 µM | 9.59 µM | 34.8 | 27.2 µM | 16.6 µM | 11.8 | 7.66 µM | 10.9 µM | 9.14 µM | 8.97 µM | 7.14 | 5.05 | 18.8 | 12.3 | 5.41 | 5.48 | 1.62 | 5.07 | 4.5 | 2.3
CCOC(=O)c1c2c(n3ccccc13)C(=O)c1ncccc1C2=O | 8.86 µM | 4.93 µM | 1.96 | 90.3 µM | 6 µM | 23.3 | > 100 µM | 4.56 µM | 19.3 µM | 0.945 µM | 0.0777 | 1.65 | 0.111 | 8.23 | 0.0581 | 0.0474 | 3.06 | 0.0561 | 1.13 | 0.03

Source: PubChem BioAssay (NCI)
